Several values for one entry are separate records, joined by “and”; a condition that tells them apart may be missing. Identical values can stand only once. Entries after “also recorded” stand apart in the source; their conditions may differ.

Results on 27 compounds are retold here after patent publication US8188081B2, “Methods of treating inflammation using prokineticin 1 receptor antagonists” (Janssen Pharmaceutica, NV, priority 2005, dated 2012).

In one experiment the target is T1, GPR73 (PK1 receptor) (Homo sapiens, UniProt Q8TCW9).
T1 construct: expressed in transfected cells; host or cells: HEK 293
Briefly: PK1 functional assay: screening for PK1 antagonists on the FLIPR (calcium dye) in HEK 293 GPR73 expressing cells. Conditions: for IC50 / Ca^2+ Mobilization % Inh @10 μM / inhibition at 10 µM: HEK 293 GPR73 (PK1 receptor) expressing cells, FLIPR; for IC50: PK1 ligand at EC50, read-out: Ca^2+ Mobilization IC50; for Ca^2+ Mobilization % Inh @10 μM: 10 μM compound; for inhibition at 10 µM: HEK293, 10 μM compound, read-out: Ca^2+ Mobilization % Inh @10 μM. It is filed as cell-based. The method, then: At a time of 24 h prior to running the assay, in cell culture media (DMEM containing high Glucose and L-glutamine, 10% FBS, 1% Pen/Streptomycin, 1% Sodium Pyruvate, 20 mM HEPES, Zeocin 200 mg/L), 100 μL of 1.3*10^6/ml HEK 293 GPR73 (PK1 receptor) expressing cells were plated in a 96 well poly-d-lysine coated plate (Costar), and incubated at 37° C. and 5% CO2. On the day in which the assay was run, the media was removed and 200 μL of 5× Calcium Plus Dye (Molecular Devices) which was previously resuspended with 200 mL of assay buffer [HBSS w/Ca^2+ and Mg^2+ w/o phenol red, 20 mM HEPES, 0.1% BSA, 10 mL probenecid (710 mg probenecid in 5 mL of 1N NaOH, to which was then added 5 mL HBSS containing 20 mM HEPES)] was added to each well of the 96-well plate. The plate was incubated at 37° C. and 5% CO2 for 30 min in dark. The plate was removed and allowed to reach RT for 15 min in the dark. The assay was then run on the FLIPR. […] Baseline is described as the amount of relative fluorescence read when buffer alone is added to cells. Baseline was subtracted from all wells. Percent of control was calculated as follows: (Baseline subtracted well value is divided by baseline subtracted max value)*100. Percent inhibition is 100 minus the percent of control value.
IC50 values were calculated using GraphPad Prism.
Table 2 includes data generated from the PK1 functional assay described in Example 2.

A further experiment relates to rat ileum. Put plainly: Contractility of isolated rat GI segments ex vivo (myobath organ bath), response to PK1.
Experiment [1] has as its target T2, basolateral Na+-K+-2Cl- co-transporter (Rattus norvegicus, UniProt E9PTX9).
T2 sequence (E9PTX9 1-1203): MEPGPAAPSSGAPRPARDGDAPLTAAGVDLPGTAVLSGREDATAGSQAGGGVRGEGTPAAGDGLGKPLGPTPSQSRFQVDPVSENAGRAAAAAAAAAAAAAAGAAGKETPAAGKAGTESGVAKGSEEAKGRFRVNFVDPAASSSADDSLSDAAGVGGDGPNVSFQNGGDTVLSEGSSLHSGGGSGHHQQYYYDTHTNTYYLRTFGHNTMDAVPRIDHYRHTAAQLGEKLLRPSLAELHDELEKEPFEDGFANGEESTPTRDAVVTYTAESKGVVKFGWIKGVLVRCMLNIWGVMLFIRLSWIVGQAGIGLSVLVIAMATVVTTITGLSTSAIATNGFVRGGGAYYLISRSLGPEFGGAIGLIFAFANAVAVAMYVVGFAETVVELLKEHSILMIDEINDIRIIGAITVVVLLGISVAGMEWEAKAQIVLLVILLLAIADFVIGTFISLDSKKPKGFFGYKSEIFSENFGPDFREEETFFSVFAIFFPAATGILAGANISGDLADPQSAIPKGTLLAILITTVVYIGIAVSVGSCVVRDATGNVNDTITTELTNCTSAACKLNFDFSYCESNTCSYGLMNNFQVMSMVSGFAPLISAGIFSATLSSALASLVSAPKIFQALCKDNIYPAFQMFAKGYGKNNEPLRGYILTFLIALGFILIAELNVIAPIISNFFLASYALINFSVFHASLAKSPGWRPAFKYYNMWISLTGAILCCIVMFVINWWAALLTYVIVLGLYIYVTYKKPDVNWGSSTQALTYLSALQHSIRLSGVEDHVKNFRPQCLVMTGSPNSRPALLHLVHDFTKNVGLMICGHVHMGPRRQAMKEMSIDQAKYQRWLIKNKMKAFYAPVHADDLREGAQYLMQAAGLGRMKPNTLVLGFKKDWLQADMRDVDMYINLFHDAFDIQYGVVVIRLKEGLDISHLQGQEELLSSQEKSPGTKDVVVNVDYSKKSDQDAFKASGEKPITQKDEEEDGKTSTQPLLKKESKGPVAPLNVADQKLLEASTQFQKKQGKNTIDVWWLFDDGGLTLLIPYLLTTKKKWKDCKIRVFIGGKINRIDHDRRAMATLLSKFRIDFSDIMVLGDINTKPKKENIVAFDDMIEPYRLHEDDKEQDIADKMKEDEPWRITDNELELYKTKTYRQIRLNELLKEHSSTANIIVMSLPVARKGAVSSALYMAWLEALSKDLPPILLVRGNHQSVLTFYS
The note with it: bumetanide 500 μM. From the text:
Methodology. The basic methodology for Using-type ion flux chambers used in these studies was the same as that described in detail above with the following modifications to the experimental protocol. To determine the mechanism of action of the pro-secretory action of PK1 on the epithelium, three separate approaches were utilized to abolish electrogenic chloride ion or bicarbonate ion transport across the epithelium. […] The second approach involved replacement of all chloride ions in the physiological buffer solution used to maintain living tissues in the Using chambers, thus substituting a chloride-free KRB solution by an equimolar substitution of isethionate and acetate salts for the chloride salts listed in the standard KRB recipe above. The third approach involved replacement of all bicarbonate ions in the physiological buffer solution, thus substituting a bicarbonate-free KRB solution by an equimolar substitution of Piperazine-N,N′-bis(2-ethanesulfonic acid) (PIPES) for the bicarbonate salt, and addition of 1 mM acetazolamide, a blocker of intracellular carbonic anhydrase, to prevent bicarbonate production by the enterocyte.

T1 sequence (Q8TCW9 whole entry, species assumed): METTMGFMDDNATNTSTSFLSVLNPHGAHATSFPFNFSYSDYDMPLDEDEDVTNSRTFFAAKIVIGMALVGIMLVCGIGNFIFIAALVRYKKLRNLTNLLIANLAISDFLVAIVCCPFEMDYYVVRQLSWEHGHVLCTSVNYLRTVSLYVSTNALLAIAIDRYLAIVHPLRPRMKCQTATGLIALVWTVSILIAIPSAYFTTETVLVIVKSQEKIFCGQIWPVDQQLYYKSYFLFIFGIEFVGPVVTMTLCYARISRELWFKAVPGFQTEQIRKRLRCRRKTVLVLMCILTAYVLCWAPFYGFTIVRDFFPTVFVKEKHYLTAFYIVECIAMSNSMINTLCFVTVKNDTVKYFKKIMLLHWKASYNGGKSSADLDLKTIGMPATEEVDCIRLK

Broadly, the IC50 is the concentration needed to halve the response being measured. For the compound `COc1ccc(Cn2c(NCCNC(=N)N)nc(=O)n(Cc3ccc(C(=O)O)cc3)c2=O)cc1` [Cpd 101, 4-[4-(2-Guanidino-ethylamino)-3-(4-methoxy-benzyl)-2,6-dioxo-3,6-dihydro-2H-[1,3,5]triazin-1-ylmethyl]-benzoic acid], the IC50 on GPR73 (PK1 receptor) is above 10 µM.

Turning to `CN1[C@@H]2CC[C@H]1C[C@@H](OC(=O)C(CO)c1ccccc1)C2` (stereo partly shown) [Atropine, reference compound], the “effect on the early component of the PK1-evoked contractile response” value in the experiment on rat ileum was “attenuate”.

In the case of “N-{2-[5-Benzyl-1-(4-methoxy-benzyl)-4,6-dioxo-1,4,5,6-tetrahydro-[1,3,5]triazin-2-ylamino]-ethyl}-oxyguanidine [Cpd 27]”, the “Ca^2+ Mobilization % Inh @10 μM” value on GPR73 (PK1 receptor) is listed as 55%.

Consider `N=C(N)NCCNc1nc(=O)n(Cc2ccccc2)c(=O)n1Cc1ccc(F)cc1` [Cpd 1], for which, at GPR73 (PK1 receptor), the IC50 is above 10 µM.

In the case of `COc1ccc(Cn2c(N[C@H]3CCCC[C@@H]3NC(=N)N)nc(=O)n(Cc3ccc(Cl)c(Cl)c3)c2=O)cc1` [Cpd 43], on GPR73 (PK1 receptor), the IC50 was above 10 µM.

For `COc1ccc(Cn2c(NCCNC(=N)N)nc(=O)n(Cc3cccc(C#N)c3)c2=O)cc1` [Cpd 98], the half-maximal inhibitory concentration (IC50) on GPR73 (PK1 receptor) was above 10 µM.

As to `COc1ccc(Cn2c(NCCNC(=N)NCCc3ccccc3)nc(=O)n(Cc3ccc(Cl)c(Cl)c3)c2=O)cc1` [Cpd 65], at GPR73 (PK1 receptor), the “Ca^2+ Mobilization % Inh @10 μM” value turned out to be 88%.

On to `N=C(N)NCCNc1nc(=O)n(Cc2ccc(F)cc2)c(=O)n1Cc1ccc([N+](=O)[O-])cc1` [Cpd 87], for which, on GPR73 (PK1 receptor), the IC50 is above 10 µM.

Regarding `COc1ccc(Cn2c(NCCNC(=N)N)nc(=O)n(CC(C)(C)C)c2=O)cc1` [Cpd 123], the IC50 on GPR73 (PK1 receptor) was above 10 µM.

Turning to “N-Benzoyl-N-{2-[5-(4-fluoro-benzyl)-1-(4-methoxy-benzyl)-4,6-dioxo-1,4,5,6-tetrahydro-[1,3,5]triazin-2-ylamino]-ethyl}-guanidine [Cpd 134]”, at GPR73 (PK1 receptor), the “Ca^2+ Mobilization % Inh @10 μM” value was 97, 97%; the IC50 is 0.019 µM and 0.028 µM.

For the compound “N-{2-[5-(4-Fluoro-benzyl)-1-(4-methoxy-benzyl)-4,6-dioxo-1,4,5,6-tetrahydro-[1,3,5]triazin-2-ylamino]-ethyl}-N-(2-fluoro-phenyl)-guanidine [Cpd 118]”, the “Ca^2+ Mobilization % Inh @10 μM” value on GPR73 (PK1 receptor) (10 µM) was 98% and 102%. In addition, the IC50 at GPR73 (PK1 receptor) was determined as 0.006 µM.

“N-{2-[5-(4-Fluoro-benzyl)-1-(4-methoxy-benzyl)-4,6-dioxo-1,4,5,6-tetrahydro-[1,3,5]triazin-2-ylamino]-ethyl}-N-(4-fluoro-phenyl)-guanidine [Cpd 119]”: the “Ca^2+ Mobilization % Inh @10 μM” value on GPR73 (PK1 receptor) (10 µM) is 102% and 99%. Further, on GPR73 (PK1 receptor), the IC50 is 0.006 µM and 0.012 µM.

As to `COc1ccc(Cn2c(N[C@H](C)[C@@H](C)NC(=N)N)nc(=O)n(Cc3ccc(F)cc3)c2=O)cc1` [Cpd 137], the inhibition at 10 µM at GPR73 (PK1 receptor) was determined as 98%.

With `COc1ccc(Cn2c(N[C@H]3CCCC[C@@H]3NC(=N)N)nc(=O)n(Cc3ccc(Cl)c(Cl)c3)c2=O)cc1` [JNJ 28611921], on GPR73 (PK1 receptor) (cellular assay), the “activity at the PK1 receptor” value was “lack significant activity; also recorded: not active”.

With `N=C(N)NCCNc1nc(=O)n(Cc2ccccc2)c(=O)n1Cc1ccncc1` [Cpd 11], the IC50 on GPR73 (PK1 receptor) is above 10 µM.

As for “N-{2-[5-(3,4-Dichloro-benzyl)-1-(4-methoxy-benzyl)-4,6-dioxo-1,4,5,6-tetrahydro-[1,3,5]triazin-2-ylamino]-ethyl}-N-isopropyl-guanidine [Cpd 58]”, the “Ca^2+ Mobilization % Inh @10 μM” value on GPR73 (PK1 receptor) (10 µM) is 102% and 99%.

In the case of `COc1ccc(Cn2c(NCCNC(=N)N)nc(=O)n(Cc3cccc(N)c3)c2=O)cc1` [Cpd 96], the IC50 on GPR73 (PK1 receptor) is above 10 µM.

Turning to `COc1ccc(Cn2c(NCCONC(=N)N)nc(=O)n(Cc3ccccc3)c2=O)cc1` [Cpd 10], at GPR73 (PK1 receptor), the inhibition at 10 µM amounted to 33% and the IC50 was above 10 µM.

`COc1ccc(Cn2c(=O)nc(NCCNC(=N)N)n(Cc3ccc(O)cc3)c2=O)cc1` [Cpd 143, N-{2-[1-(4-Hydroxy-benzyl)-5-(4-methoxy-benzyl)-4,6-dioxo-1,4,5,6-tetrahydro-[1,3,5]triazin-2-ylamino]-ethyl}-guanidine]: the inhibition at 10 µM at GPR73 (PK1 receptor) amounted to 101%.

In the case of `NC1=N[C@H](O)[C@H]2[C@H]3O[C@]4(O)O[C@@H]([C@@H](O)[C@@]2(N1)[C@@H]4O)[C@]3(O)CO` [Tetrodotoxin, reference compound], the “effect on the early component of the PK1-evoked contractile response” value in the experiment on rat ileum is on record as “attenuate”.

As for `CCCCNc1cc(C(=O)O)cc(S(N)(=O)=O)c1Oc1ccccc1` [bumetanide, Bumetanide], the “effect on baseline G” value in experiment [1] is “did not significantly change”. The “change in baseline Isc after addition to the serosal bathing solution” value in experiment [1] (n=5, not significantly different from DMSO vehicle) was −7.1+/−8.6 μA/cm^2. For the same compound, the “attenuation of the PK1-evoked increase in Isc” value in experiment [1] (serosal) is above 90%.

Regarding `N=C(N)NCCNc1nc(=O)n(Cc2ccccc2)c(=O)n1Cc1cccc(C(F)(F)F)c1` [Cpd 7], the IC50 on GPR73 (PK1 receptor) is above 10 µM.

`COc1ccc(Cn2c(NCCNC(=N)N)nc(=O)n(Cc3ccccc3OC)c2=O)cc1` [Cpd 21]: the IC50 on GPR73 (PK1 receptor) is above 10 µM.

“N-{2-[5-(4-Fluoro-benzyl)-1-(4-methoxy-benzyl)-4,6-dioxo-1,4,5,6-tetrahydro-[1,3,5]triazin-2-ylamino]-ethyl}-N-amino-guanidine [Cpd 93]”: on GPR73 (PK1 receptor), the “Ca^2+ Mobilization % Inh @10 μM” value turned out to be 92% and the IC50 stood at 0.227 µM.

For `COc1ccc(Cn2c(NCCNC(=N)NCCc3ccccn3)nc(=O)n(Cc3ccc(F)cc3)c2=O)cc1` [Cpd 105], on GPR73 (PK1 receptor), the “Ca^2+ Mobilization % Inh @10 μM” value is recorded as 100%.

In the case of `COc1ccc(Cn2c(N[C@@H](C)[C@H](C)NC(=N)N)nc(=O)n(Cc3ccc(F)cc3)c2=O)cc1` [Cpd 136], the IC50 on GPR73 (PK1 receptor) was above 10 µM.

For `COc1ccc(Cn2c(NCCN(C(=N)N)c3ccccn3)nc(=O)n(Cc3ccc(F)cc3)c2=O)cc1` [Cpd 104, N-{2-[5-(4-Fluoro-benzyl)-1-(4-methoxy-benzyl)-4,6-dioxo-1,4,5,6-tetrahydro-[1,3,5]triazin-2-ylamino]-ethyl}-N-pyridin-2-yl-guanidine], on GPR73 (PK1 receptor) (10 µM), the “Ca^2+ Mobilization % Inh @10 μM” value turned out to be 99%.
